Test results reported in PMC5665883, “Antithrombotic properties of JJ1, a potent and novel thrombin inhibitor” (Scientific Reports, 2017).

Experiments:
Factor Xa = target: T1, Factor Xa (Homo sapiens, UniProt P00742); experiment: Chromogenic substrate assay, Ki (Dixon); format: biochemical
T1 construct: thrombin versus trypsin, factor Xa, elastase, plasmin, protein Ca, streptokinase, tPA, and urokinase; purchased Haematologic Technologies (Essex Junction, VT)

Urokinase = Urokinase (Homo sapiens, UniProt P00749); experiment: Chromogenic substrate assay, Ki (Dixon); format: biochemical
[1] = Organ injury markers (biochemical safety parameters); format: in vivo, C57BL/6 mice; design: BUN: unit not given here
Method: The safety of JJ1 is another promising feature. Animal safety markers such as aspartate transaminase (AST) and alanine transaminase (ALT) (markers of hepatic injury) and creatinine and blood urea nitrogen (BUN) (markers of renal injury) were assessed with blood samples obtained at 48 h after JJ1 injection. […] Serum levels of AST, ALT, BUN, and creatinine were measured using commercial assay kits (Pointe Scientific, Linclon Park, MI).

mouse platelet = experiment: Ex vivo thrombin-induced platelet aggregation; format: in vivo; conditions: i.v. injection
Method: (§1) The in vitro platelet aggregation study was performed according to a previously reported method[59],[62]. Washed human platelets were incubated with the indicated concentration of JJ1 in DMSO for 1, 3, 5, or 10 min and subsequently stimulated by thrombin in 0.9% saline solution at 37 °C for 5 min. Platelet aggregation was recorded using an aggregometer (Chronolog, Havertown, PA, USA). For the ex vivo aggregation assay, male mice were fasted overnight and the indicated concentration of JJ1 in DMSO was administered by i.v. injection. After 24 h, PRP (10^9 platelets/mL) in a total volume of 240 μL was incubated at 37 °C for 1.5 min in the aggregometer with continuous stirring at 1000 rpm and subsequently stimulated with thrombin. Platelet aggregation was recorded as described above.

human platelets = experiment: In vitro thrombin-induced platelet aggregation; format: cell-based; conditions: washed human platelets
Method: as §1

Streptokinase = Streptokinase (Homo sapiens, UniProt P00747); experiment: Chromogenic substrate assay, Ki (Dixon); format: biochemical
Streptokinase, sequence (P00747 581-810 limits assumed): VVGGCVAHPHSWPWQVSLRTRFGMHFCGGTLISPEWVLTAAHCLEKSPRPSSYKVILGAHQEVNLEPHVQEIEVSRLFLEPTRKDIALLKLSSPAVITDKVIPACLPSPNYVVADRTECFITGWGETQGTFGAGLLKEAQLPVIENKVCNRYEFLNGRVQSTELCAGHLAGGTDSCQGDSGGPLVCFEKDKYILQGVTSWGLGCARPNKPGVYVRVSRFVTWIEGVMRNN

Trypsin = experiment: Chromogenic substrate assay, Ki (Dixon); format: biochemical, human; conditions: Trypsin; mean ± SD (n = 5)
Method: Chromogenic substrate assays were performed using a Labsystems IEMS (Cergy Pontoise, France) microtiter plate reader. K i values were calculated according to the method of Dixon[65]. In each assay, the compound was tested at a minimum of seven concentrations, in duplicate, to obtain an inhibition curve. The following general procedures were adopted for each assay. In a 96-well microtiter plate, 25 μL of inhibitor solution or buffer was added to 50 μL of substrate. The enzyme solution (25 μL) was added just before the plate was placed in the microtiter plate reader for 1 h at 37 °C. The hydrolysis of the substrate yields p-nitroaniline, which was continuously monitored spectrophotometrically at 405 nm. The maximal initial reaction rates were calculated and expressed as millioptical density per minute.

HUVECs = experiment: Production of thrombin on the surfaces of HUVECs; format: cell-based, human; conditions: HUVECs with FVa, FXa, prothrombin
Method: Thrombin production by HUVECs was quantified as previously described[63],[68]. Briefly, HUVECs were pre-incubated in 300 μL of a solution containing JJ1 in 50 mM Tris-HCl buffer, 100 pM FVa, and 1 nM FXa for 10 min, followed by the addition of prothrombin to a final concentration of 1 μM. After 10 min, duplicate samples (10 μL each) were transferred into a 96-well plate containing 40 μL 0.5 M EDTA in TBS per well to terminate the prothrombin activation. Activated prothrombin was determined by the measurement of the rate of hydrolysis of S-2238 (a thrombin substrate) at 405 nm. Standard curves were prepared with known amounts of purified thrombin.

clot-bound thrombin = target: T2, clot-bound thrombin (Homo sapiens, UniProt P00734); experiment: Clot-bound thrombin assay, FPA generation (ELISA); format: biochemical; conditions: 60 min of incubation, FPA by ELISA; read-out: IC50, inhibition of FPA generation by clot-bound thrombin
T2 construct: Fibrin clots were formed by recalcification of citrated plasma and washed extensively; from tissue; host or cells: fibrin clots from recalcified citrated plasma
Method: Fibrin clots were formed by recalcification of citrated plasma and washed extensively to remove any FPA trapped within the clots. Plasma was then placed over the washed clots and FPA generation was determined. There was a time-dependent generation of FPA in plasma that was not caused by the release of FPA trapped within the washed clots, because the addition of buffer over the clots produced only a minimal amount of FPA (5.25 ± 0.35 nM at 60 min) (Fig. 8). The endogenous FPA level was 5.05 ± 0.31 nM in these studies.
The generation of FPA in plasma with or without JJ1 was quantified in accordance with the manufacturer’s instructions by using a commercially available ELISA kit (LSBio, Seattle, WA). Values were measured using an ELISA plate reader (Tecan, Austria GmbH, Austria).

[2] = In vivo tail bleeding time; design: species or system C57BL/6 mice; conditions: mice, i.v. injection, 1 h after administration
Method: Tail bleeding times were measured by using the method of Dejana et al.[63],[64]. Briefly, C57BL/6 mice were fasted overnight prior to the experiments. One hour after the i.v. administration of JJ1, the tails of the mice were transected at 2 mm from their tips. The bleeding time was defined as the time elapsed until the bleeding stopped. Bleeding times exceeding 15 min were recorded as lasting for 15 min.

[3] = male C57BL/6 mice, 3.06 μg/mouse, 48 h after injection

T1 sequence (P00742 235-488 limits assumed): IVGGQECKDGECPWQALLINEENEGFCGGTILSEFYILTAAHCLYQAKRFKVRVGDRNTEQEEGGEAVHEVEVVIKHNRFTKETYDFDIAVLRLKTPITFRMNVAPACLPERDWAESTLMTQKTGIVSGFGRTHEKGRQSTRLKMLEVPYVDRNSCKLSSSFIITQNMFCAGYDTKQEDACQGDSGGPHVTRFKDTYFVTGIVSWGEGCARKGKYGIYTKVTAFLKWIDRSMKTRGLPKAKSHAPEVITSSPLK
T1 sequence (P00742 41-179 limits assumed): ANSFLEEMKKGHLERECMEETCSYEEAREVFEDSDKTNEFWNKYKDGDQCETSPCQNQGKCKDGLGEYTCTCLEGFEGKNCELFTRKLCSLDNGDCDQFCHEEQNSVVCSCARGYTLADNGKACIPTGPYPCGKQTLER

In the case of `c1ccc2c(NC3CCCC3)nc(Nc3ccncc3)nc2c1` [JJ1], the Ki (Factor Xa; Factor Xa) is reported as > 250 µM, the Selectivity ratio (Factor Xa; K i Factor Xa/K i α-thrombin) is reported as >10,000 and the Selectivity ratio (Urokinase; K i Urokinase/K i α-thrombin) is reported as >10,000. For the same compound, the Ki (Urokinase; Urokinase) was > 250 µM, the “Plasma levels of AST, ALT, BUN, and creatinine compared to DMSO-treated animals” value ([1]; after 2 days) was “no significant differences” and the ALT [1, 3] was 7.5 ± 0.63 IU/L. The AST [1, 3] was 15.1 ± 1.29 IU/L, the BUN [1, 3] was 17.1 ± 1.31 and the Creatinine [1, 3] was 0.139 ± 0.012 mg/dL. For the same compound, the “Mouse platelet aggregation induced by thrombin, ex vivo” value (mouse platelet) was “confirmed in an ex vivo platelet aggregation assay”, the “Human platelet aggregation induced by thrombin” value (human platelets) was “significantly inhibited human platelet aggregation induced by thrombin in a concentration-dependent manner” and the Selectivity ratio (Streptokinase; K i Streptokinase/K i α-thrombin) was >10,000. For the same compound, the Ki (Streptokinase; Streptokinase) was > 250 µM, the Ki (Trypsin) was > 250 µM and the Production of thrombin (HUVECs) was “inhibited the production of thrombin in a dose-dependent manner”. The IC50 (clot-bound thrombin) was 2.45 µM, the Tail bleeding time ([2]; 0.31 μg/mouse) was 30.6 ± 0.8 s and the Tail bleeding time ([2]; 0.61 μg/mouse) was 37.2 ± 1.0 s. The Tail bleeding time ([2]; 1.23 μg/mouse) was 44.8 ± 1.2 s and the Tail bleeding time ([2]; 3.06 μg/mouse) was 52.2 ± 1.4 s.
